# Data: patent US6201006A, “Aromatic amidine derivatives useful as selective thrombin inhibitors” (C & C Research Laboratories, priority 1996, dated 2001)
# What was measured:
# [1] = target: T1, human thrombin (Homo sapiens, UniProt P00734); test: Inhibitory activity for thrombin (chromogenic substrate hydrolysis, 405 nm); format: biochemical; settings: for Selectivity (trypsin/thrombin): IC50 for trypsin divided by IC50 for thrombin; for IC50: human thrombin, 20 min, pH 8.0, N-benzoyl-Phe-Val-Arg-p-nitroanilide
# T1 construct: purchased Sigma T-6759
# Protocol: 20 μl of each compound of the present invention was dissolved in 50% methanol in various concentrations and then added to each well of a microplate, to each of which 160 μl of the reaction medium containing 125 mM NaCl, 50 mM Tris-HCl (pH 8.0) and 2 mM synthetic substrate (N-benzoyl-Phe-Val-Arg-p-nitroanilide, Sigma B-7632) were added. 20 μl of human thrombin solution (5 units/ml, Sigma T-6759, manufactured by Sigma Co.) containing 0.1% bovine serum albumin was added to each well to initiate the enzymatic reaction. After 20 minutes, the hydrolysis of substrate was determined by measuring the absorbance at 405 nm. […] The selectivity index was calculated by dividing the IC50 value for trypsin by the IC50 value for thrombin. The thrombin inhibitory activity and the trypsin inhibitory activity for the compound of the present invention are shown in the following Table 2.
# [2] = test system: trypsin; test: Inhibitory activity for trypsin; format: biochemical
# [3] = test system: thrombin time (TT) in rat plasma; test: Thrombin time (TT) in rat plasma after oral administration; format: in vivo, SD male rats; settings: TT after / TT before administration
# Protocol: SD male rats weighing 220±20 g which had fasted overnight were used as experimental animals. Blood taken from the hearts of the experimental animals just before administration of the test compound and at 30, 60, 120 and 240 minutes after oral administration of the test compound was mixed with 0.108M sodium citrate in the ratio of 9:1. The mixtures thereby obtained were centrifuged at 15,000 rpm for 5 minutes at 4° C. to separate the plasma, which was stored at -20° C. until the TT was measured by means of the method described below.
# 200 μl of Owren's buffer was added to 50 μl of the plasma and 100 μl of the diluted plasma thereby obtained was injected into the vial of a coagulometer and then incubated for 2 minutes at 37° C. To each vial was added 100 μl of thrombin at a concentration of 20 U/ml, which had prewarmed at 37° C., to measure the time (TT) until clotting occurred. The ratio of the TT in rat plasma after administration of the test compound to the TT in rat plasma before administration of the test compound was calculated.
Selectivity (trypsin/thrombin) [1],IC50 [1],IC50 [2],SMILES,Plasma TT ratio after administration to rat ([3]; 30 mg/kg oral),Plasma TT ratio after administration to rat ([3]; 50 mg/kg oral)
19.2,23 nM,443 nM,"CCn1c(CC[C@@H]2CCCN2C(=O)[C@H]2CCCN2C(=O)[C@@H](N)CC(N)=O)cc2ccc(C(=N)N)cc21 [Compound 148, 1-ethyl-2-[2-[(S)-1-[[(R)-1-((S)-2-amino-3-carbamoylpropanoyl)pyrrolidin-2-yl]carbonyl]pyrrolidin-2-yl]ethyl]indole-6-carboxamidine]",–,–
–,–,–,"CCOC(=O)CN1CCCC1C(=O)N1CCCC1CCc1cc2ccc(C(=N)NC(=O)OC(Cl)(Cl)Cl)cc2n1CC [Compound 272, ethyl 2-[(R)-2-[[(S)-2-[2-[6-[[(trichloromethoxy)carbonylamino]iminomethyl]-1-ethylindol-2-yl]ethyl]pyrrolidinyl]carbonyl]pyrrolidinyl]acetate]",1.76,2.84
30.0,10.1 nM,304 nM,"C=CC(=O)N1CCC[C@@H]1C(=O)N1CCC[C@H]1CCc1cc2ccc(C(=N)N)cc2n1CC [Compound 182, 1-ethyl-2-[2-[(S)-1-[((R)-1-prop-2-enoyl-pyrrolidin-2-yl)carbonyl]pyrrolidin-2-yl]ethyl]indole-6-carboxamidine]",–,–
34.7,22.3 nM,775 nM,"CCn1c(CC[C@@H]2CCCN2C(=O)[C@H]2CCCN2C2CCOC2=O)cc2ccc(C(=N)N)cc21 (stereo partly drawn) [Compound 125, 1-ethyl-2-[2-[(S)-1-[[(R)-1-(2-oxo-3-oxolanyl)pyrrolidin-2-yl]carbonyl]pyrrolidin-2-yl]ethyl]indole-6-carboxamidine]",–,–
28.8,17.4 nM,500 nM,"CCn1c(CC[C@@H]2CCCN2C(=O)[C@H]2CCCN2CC(N)=O)cc2ccc(C(=N)N)cc21 [Compound 114, 1-ethyl-2-[2-[(S)-1-[[(R)-1-(carbamo-ylmethyl)pyrrolidin-2-yl]carbonyl]pyrrolidin-2-yl]ethyl]indole-6-carboxamidine]",–,–
48.6,16.7 nM,811 nM,"CCn1c(CC[C@@H]2CCCN2C(=O)[C@H]2CCCN2C(CCO)C(N)=O)cc2ccc(C(=N)N)cc21 (stereo partly drawn) [Compound 117, 1-ethyl-2-[2-[(S)-1-[[(R)-1-(1-carbamoyl-3-hydroxypropyl)pyrrolidin-2-yl]carbonyl]pyrrolidin-2-yl]-ethyl]indole-6-carboxamidine]",–,–
57.9,9.51 nM,551 nM,"CCn1c(CC[C@@H]2CCCN2C(=O)[C@H]2CCCN2S(C)(=O)=O)cc2ccc(C(=N)N)cc21 [Compound 184, 1-ethyl-2-[2-[(S)-1-[[(R)-1-(methanesulfonyl)pyrrolidin-2-yl]carbonyl]pyrrolidin-2-yl]ethyl]indole-6-carboxamidine]",–,–
17.4,3 nM,52.2 nM,"CCn1c(CC[C@@H]2CCCN2C(=O)CN(C2CC2)S(C)(=O)=O)cc2ccc(C(=N)N)cc21 [Compound 58, 1-ethyl-2-[2-[(S)-1-[2-[cyclopropyl(methylsulfonyl)amino]acetyl]pyrrolidin-2-yl]ethyl]indole-6-carboxamidine]",–,–
46.6,9.01 nM,420 nM,"CCn1c(CC[C@@H]2CCCN2C(=O)C(c2ccccc2)C2CCCC2)cc2ccc(C(=N)N)cc21 (stereo partly drawn) [Compound 30, 1-ethyl-2-[2-[(S)-1-(2-cyclopentyl-2-phenylacetyl)pyrrolidin-2-yl]ethyl]indole-6-carboxamidine]",–,–
30.2,20.1 nM,608 nM,CCn1c(CC[C@@H]2CCCN2C(=O)Cc2cccc(Cl)c2)cc2ccc(C(=N)N)cc21 [Compound 15],–,–
17.6,18.3 nM,322 nM,"CCn1c(CC[C@@H]2CCCN2C(=O)[C@H]2CCCN2C(=O)C2CCCCN2)cc2ccc(C(=N)N)cc21 (stereo partly drawn) [Compound 167, 1-ethyl-2-[2-[(S)-1-[[(R)-1-[(2-piperidyl)carbonyl]pyrrolidin-2-yl]carbonyl]pyrrolidin-2-yl]ethyl]indole-6-carboxamidine]",–,–
26.6,18.8 nM,500 nM,CCn1c(CC[C@@H]2CCCN2C(=O)[C@H]2CCCN2C(=O)CCC(=O)O)cc2ccc(C(=N)N)cc21 [Compound 177],–,–
33.9,9.23 nM,313 nM,"CCOC(=O)C(C(=O)N1CCC[C@H]1CCc1cc2ccc(C(=N)N)cc2n1CC)C1CCCC1 (stereo partly drawn) [Compound 44, ethyl 3-[(S)-2-[2-(6-aminido-1-ethylindol-2-yl)ethyl]pyrrolidinyl]-2-cyclopentyl-3-oxopropanoate]",–,–
75.2,5.46 nM,410 nM,"CCn1c(CC[C@@H]2CCCN2C(=O)[C@H]2CCCN2C(=O)[C@H](C)N)cc2ccc(C(=N)N)cc21 [Compound 143, 1-ethyl-2-[2-[(S)-1-[[(R)-1-((S)-2-aminopropanoyl)pyrrolidin-2-yl]carbonyl]pyrrolidin-2-yl]ethyl]indole-6-carboxamidine]",–,–
45.0,7.3 nM,329 nM,"CCn1c(CCC2CCCN2C(=O)C2CCCN2C(=O)CC(NS(C)(=O)=O)C(N)=O)cc2ccc(C(=N)N)cc21 [Compound 162, 1-ethyl-2-[2-[(S)-1-[[1-[(R)-1-[3-carbamoyl-(S)-3-[(methanesulfonyl)amino]propanoyl]pyrrolidin-2-yl]carbonyl]pyrrolidin-2-yl]ethyl]indole-6-carboxamidine]",–,–
–,–,–,"CCOC(=O)CN1CCC[C@@H]1C(=O)N1CCC[C@H]1CCc1cc2ccc(C(=N)NC(=O)OCC)cc2n1CC [Compound 267, ethyl 2-[(R)-2-[[(S)-2-[2-[1-ethyl-6-[(ethoxycarbonylamino)iminomethyl]indol-2-yl]ethyl]pyrrolidinyl]carbonyl]pyrrolidinyl]acetate]",–,4.48
24.2,7.59 nM,184 nM,"CCOC(=O)CN[C@@H](C(=O)N1CCC[C@H]1CCc1cc2ccc(C(=N)N)cc2n1CC)c1ccccc1 [Compound 38, ethyl 2-[[(R)-2-[2-[(S)-2-[2-(6-amidino-1ethylindol-2-yl)ethyl]pyrrolidinyl]-2-oxo1-phenyl]ethyl]amino]acetate]",–,–
21.0,22.1 nM,464 nM,"CCn1c(CC[C@@H]2CCCN2C(=O)[C@H]2CCCN2C(=O)[C@H](C)NS(C)(=O)=O)cc2ccc(C(=N)N)cc21 [Compound 146, 1-ethyl-2-[2-[(S)-1-[[(R)-1-[(S)-2-(methanesulfonylamino)propanoyl]pyrrolidin-2-yl]carbonyl]pyrrolidin-2-yl]-ethyl]indole-6-carboxamidine]",–,–
18.6,33.1 nM,617 nM,"CCn1c(CC[C@@H]2CCCN2C(=O)[C@H]2CCCN2C(=O)CCCN)cc2ccc(C(=N)N)cc21 [Compound 166, 1-ethyl-2-[2-[(S)-1-[[(R)-1-(4-aminobutanoyl)pyrrolidin-2-yl]carbonyl]pyrrolidin-2-yl]ethyl]indole-6-carboxamidine]",–,–
31.9,33.5 nM,1070 nM,"CC(=O)N1CCC[C@@H]1C(=O)N1CCC[C@H]1CCc1cc2ccc(C(=N)N)cc2n1C [Compound 170, 1-methyl-2-[2-[(S)-1-[((R)-1-acetylpyrrolidin-2-yl)-carbonyl]pyrrolidin-2-yl]ethyl]indole-6-carboxamidine]",–,–
31.8,11 nM,351 nM,"CCn1c(CC[C@@H]2CCCN2C(=O)[C@H]2CCCN2C(=O)CC(C)O)cc2ccc(C(=N)N)cc21 (stereo partly drawn) [Compound 180, 1-ethyl-2-[2-[(S)-1-[[(R)-1-(3-hydroxybutanoyl)pyrrolidin-2-yl]carbonyl]pyrrolidin-2-yl]-ethyl]indole-6-carboxamidine]",–,–
48.6,9.47 nM,460 nM,CCn1c(CC[C@@H]2CCCN2Cc2c(C(N)=O)sc3ccccc23)cc2ccc(C(=N)N)cc21 [Compound 8],–,–
20.1,26.1 nM,–,"CCn1c(CC[C@@H]2CCCN2C(=O)[C@H]2CCCN2C(=O)[C@@H](N)C(C)C)cc2ccc(C(=N)N)cc21 [Compound 145, 1-ethyl-2-[2-[(S)-1-[[(R)-1-((S)-2-amino-3-methylbutanoyl)pyrrolidin-2-yl]carbonyl]pyrrolidin-2-yl]-ethyl]indole-6-carboxamidine]",–,–
